Four compounds from publication PMC8388771, “Cationic Peptidomimetic Amphiphiles Having a N-Aryl- or N-Naphthyl-1,2,3-Triazole Core Structure Targeting Clostridioides (Clostridium) difficile: Synthesis, Antibacterial Evaluation, and an In Vivo C. difficile Infection Model” (Antibiotics, 2021) can be followed below.

One data set concerns C. albicans ATCC 90028. Nature of the data set: CO-ADD MIC assay, C. albicans ATCC 90028. The data set is classed as cell-based. The settings on record: Candida albicans, ATCC90028, Table S1. From the text:
(§1) The N-arytriazole and N-naphthyltriazole peptidomimetics were subjected to antimicrobial screening. […] Vancomycin, colistin, fluconazole, and tamoxifen were used as positive controls (see Table 1 for details).
(§2) Secondary screening (MRSA and Gram-negative bacteria) and cytotoxicity assay–performed by the Community for Open Antimicrobial Drug Discovery (CO-ADD). Samples were provided to CO-ADD [29] for antimicrobial screening by whole cell growth inhibition assays.

Another data set relates to S. pneumoniae ATCC 49619. Nature of the data set: Primary MIC assay, S. pneumoniae ATCC 49619. The data set is classed as cell-based, Streptococcus pneumoniae. The following applies: Streptococcus pneumoniae, ATCC49619; Table 1; read-out: MIC S. pneumoniae ATCC 49619. How it is done: as §1
(§3) Primary screening (Gram-positive bacteria). Primary MIC assays were performed as described by the Clinical and Laboratory Standards Institute for aerobic and anaerobic bacteria. MIC values for vancomycin were within acceptable QC ranges.

A short description of data set [1]: Cytotoxicity (CC50) assay by CO-ADD. In kind it is cell-based, human. The settings on record: human, HEK293 cells (ATCC CRL-1573); Table 1; cytotoxicity on HEK293 cells, tested at ≤32 µg/mL.
Description: as §1, §2
Cytotoxicity Assay. These were performed as described previously.

In a further data set the test system is A. baumannii ATCC 19606. Nature of the data set: CO-ADD MIC assay, A. baumannii ATCC 19606. The data set is classed as cell-based. The settings on record: Acinetobacter baumannii, ATCC19606, Table S1.
Description: as §1, §2
(§4) Bacterial Inhibition–MIC Assay. These were performed as described previously.

Another data set relates to C. difficile 132 (RT027). Nature of the data set: Primary MIC assay, C. difficile 132 (RT027). In kind it is cell-based, Clostridioides difficile. The settings on record: Clostridioides difficile; Table 1; read-out: MIC C. difficile 132 (RT027). How it is done:
as §1, §3

The test system of another data set is S. aureus NCTC 10442. Nature of the data set: Primary MIC assay, S. aureus NCTC 10442 (MRSA). The data set is classed as cell-based. The following applies: Staphylococcus aureus; Table 1; MRSA; read-out: MIC S. aureus NCTC 10442. As for the experimental part: as §1, §3
The next data set has as its system S. aureus ATCC 29213. Nature of the data set: Primary MIC assay, S. aureus ATCC 29213. In kind it is cell-based. The following applies: Staphylococcus aureus, ATCC29213; Table 1; read-out: MIC S. aureus ATCC 29213. As for the experimental part:
as §1, §3

The test system of another data set is S. aureus ATCC 43300. Nature of the data set: CO-ADD MIC assay, S. aureus ATCC 43300 (MRSA). The following applies: Staphylococcus aureus, Table S1; MRSA; CO-ADD; read-out: MIC S. aureus ATCC 43300. The data set is classed as cell-based.
Description: as §1, §2, §4

The subject of data set [2] is Cryptococcus neoformans var. grubii ATCC 208821. Nature of the data set: CO-ADD MIC assay, C. neoformans var. grubii ATCC 208821. The settings on record: for MIC: Cryptococcus neoformans, ATCC208821, Table S1. In kind it is cell-based.
Description: as §1, §2

Data set [3] deals with E. coli ATCC 25922. Nature of the data set: CO-ADD MIC assay, E. coli ATCC 25922. The data set is classed as cell-based. The settings on record: Escherichia coli, ATCC25922, Table S1.
Description: as §1, §2, §4

The subject of data set [4] is E. coli ATCC 25922. Nature of the data set: Primary MIC assay, E. coli ATCC 25922. In kind it is cell-based. The following applies: Escherichia coli, ATCC25922; Table 1; read-out: MIC E. coli ATCC 25922.
A further data set deals with human erythrocytes. Nature of the data set: Hemolysis assay, HC50 determination. In kind it is cell-based. As for the experimental part:
Hemolysis assay (human erythrocytes)–HC50 determination. These were performed as described previously.

Data set [5] concerns K. pneumoniae ATCC 700603. Nature of the data set: CO-ADD MIC assay, K. pneumoniae ATCC 700603. The data set is classed as cell-based. The settings on record: Klebsiella pneumoniae, ATCC700603, Table S1, multi-drug resistant.
Description: as §1, §2, §4

A further data set relates to P. aeruginosa ATCC 27853. Nature of the data set: CO-ADD MIC assay, P. aeruginosa ATCC 27853. The settings on record: Pseudomonas aeruginosa, ATCC27853, Table S1. The data set is classed as cell-based.
Description: as §1, §2, §4

A further data set has as its system E. faecalis ATCC 29212. Nature of the data set: Primary MIC assay, E. faecalis ATCC 29212. The following applies: Enterococcus faecalis, ATCC29212; Table 1; read-out: MIC E. faecalis ATCC 29212. The data set is classed as cell-based, Enterococcus faecalis. How it is done: as §1, §3
The next data set deals with C. difficile ATCC 700057. Nature of the data set: Primary MIC assay, C. difficile ATCC 700057. In kind it is cell-based, Clostridioides difficile. The settings on record: Clostridioides difficile, ATCC700057; Table 1; read-out: MIC C. difficile ATCC 700057. As for the experimental part: as §1, §3
Where [6] appears, read: Table 1, lysis of human erythrocytes.
[7] abbreviates: Table S1, footnote says lysis of sheep erythrocytes.

Each structure is given as a SMILES string. ≈ marks a conversion by molar mass, not a printed value.

For the compound `CC(C)CCc1cnnn1-c1c(OCC(=O)N[C@H](CCCNC(=N)N)Cn2cc(CC3CCCCC3)nn2)ccc2ccccc12.Cl` [Compound 25], the MIC – broadly, the lowest concentration found to suppress growth – against C. albicans ATCC 90028 stood at 16 µg/mL; with S. pneumoniae ATCC 49619, 8 µg/mL; with A. baumannii ATCC 19606, 32 µg/mL; in the data set with C. difficile 132 (RT027) it was 64 µg/mL; with S. aureus NCTC 10442 it was 4 µg/mL; in the data set with S. aureus ATCC 29213 it was 4 µg/mL. Moreover, the MIC is 4 µg/mL with S. aureus ATCC 43300; 4 to 8 µg/mL in data set [2]; 32 µg/mL against E. coli ATCC 25922 [3]; 16 µg/mL in the data set on E. coli ATCC 25922 [4]; over 32 µg/mL in data set [5]; over 32 µg/mL against P. aeruginosa ATCC 27853. For the same compound, the values for the MIC in the data set on E. faecalis ATCC 29212 and in the data set on C. difficile ATCC 700057 were 8 µg/mL and 32 µg/mL, respectively. Further, in data set [1], the CC50 (in general, the concentration at which the toxic effect on the cells reaches its halfway point) is over 32 µg/mL. Besides, in [2] (Table S1), the “MIC C. neoformans var. grubii ATCC 208821” value is 8 µg/mL. In addition, the HC50 in the data set with human erythrocytes (setting [6]) and in the data set with human erythrocytes (setting [7]) was 10.6 µg/mL throughout.

With `CC(C)CCc1cnnn1-c1c(OCC(=O)N[C@H](CCCNC(=N)N)Cn2cc(Cc3ccccc3)nn2)ccc2ccccc12.Cl` [Compound 26], the MIC against C. albicans ATCC 90028 is 32 µg/mL; in the data set on S. pneumoniae ATCC 49619 it was 4 µg/mL; in the data set with A. baumannii ATCC 19606, over 32 µg/mL; in the data set with C. difficile 132 (RT027), over 128 µg/mL; with S. aureus NCTC 10442 it was 8 µg/mL; in the data set with S. aureus ATCC 29213 it was 8 µg/mL. In addition, the minimal inhibitory concentration (MIC) in the data set on S. aureus ATCC 43300 was 16 µg/mL; in data set [2], over 32 µg/mL; in the data set with E. coli ATCC 25922 [3], over 32 µg/mL; with E. coli ATCC 25922 [4], 64 µg/mL; in data set [5], over 32 µg/mL; against P. aeruginosa ATCC 27853 it was over 32 µg/mL. Also, the MIC in the data set on E. faecalis ATCC 29212 was 16 µg/mL; with C. difficile ATCC 700057, 64 µg/mL. This compound registered a CC50 in data set [1] of 23.5 µg/mL. The HC50 with human erythrocytes (setting [6]) and in the data set with human erythrocytes (setting [7]) was over 32 µg/mL throughout.

In the case of `CC(C)CCc1cn(-c2ccccc2OCC(=O)N[C@H](CCCCN)C(=O)N[C@H](CCCNC(=N)N)Cn2cc(Cc3ccccc3)nn2)nn1` [Compound 36], the MIC is 16 µg/mL (≈ 22.8 µM) in the data set on C. albicans ATCC 90028; 16 µg/mL (≈ 22.8 µM) in the data set on S. pneumoniae ATCC 49619; over 32 µg/mL with A. baumannii ATCC 19606; 128 µg/mL (≈ 183 µM) in the data set with C. difficile 132 (RT027); 32 µg/mL (≈ 45.7 µM) with S. aureus NCTC 10442; 32 µg/mL (≈ 45.7 µM) in the data set with S. aureus ATCC 29213. The minimum inhibitory concentration (MIC) is 16 µg/mL (≈ 22.8 µM) with S. aureus ATCC 43300; 32 µg/mL (≈ 45.7 µM) in data set [2]; over 32 µg/mL against E. coli ATCC 25922 [3]; 128 µg/mL (≈ 183 µM) with E. coli ATCC 25922 [4]; over 32 µg/mL in [5]; over 32 µg/mL in the data set on P. aeruginosa ATCC 27853. The results for the MIC in the data set with E. faecalis ATCC 29212 and in the data set on C. difficile ATCC 700057 were 64 µg/mL (≈ 91.3 µM) and 128 µg/mL (≈ 183 µM), respectively. In [1], this compound came in with a CC50 of over 32 µg/mL. In addition, the HC50 in the data set on human erythrocytes (setting [6]) and with human erythrocytes (setting [7]) was over 32 µg/mL in each case.

Regarding `CC(C)CCc1cnnn1-c1ccccc1OCC(=O)N[C@H](CCCCN)C(=O)N[C@H](CCCNC(=N)N)Cn1cc(C2CCCCC2)nn1` [Compound 37], the minimal inhibitory concentration (MIC) against C. albicans ATCC 90028 is 16 µg/mL (≈ 23.1 µM); with S. pneumoniae ATCC 49619, 8 µg/mL (≈ 11.5 µM); with A. baumannii ATCC 19606, over 32 µg/mL; in the data set on C. difficile 132 (RT027), 64 µg/mL (≈ 92.4 µM); in the data set on S. aureus NCTC 10442 it was 32 µg/mL (≈ 46.2 µM); in the data set with S. aureus ATCC 29213, 16 µg/mL (≈ 23.1 µM). For the same compound, the MIC with S. aureus ATCC 43300 is 16 µg/mL (≈ 23.1 µM); in data set [2] it was 16 µg/mL (≈ 23.1 µM); against E. coli ATCC 25922 [3] it was over 32 µg/mL; in the data set with E. coli ATCC 25922 [4], 64 µg/mL (≈ 92.4 µM); in data set [5], over 32 µg/mL; against P. aeruginosa ATCC 27853, over 32 µg/mL. The results for the MIC in the data set on E. faecalis ATCC 29212 and in the data set on C. difficile ATCC 700057 were 16 µg/mL (≈ 23.1 µM) and 64 µg/mL (≈ 92.4 µM), respectively. In addition, in [1], the CC50 was over 32 µg/mL. Besides, the HC50 with human erythrocytes (setting [6]) and in the data set on human erythrocytes (setting [7]) was over 32 µg/mL throughout.
